Measurements taken from patent US20070027165A1, “Fungicidal mixtures for controlling rice pathogens” (BASF Aktiengesellschaft, priority 2003, published 2007).

System: Cochliobolus miyabeanus
Assay: activity against brown spot of rice caused by Cochliobolus miyabeanus, protective application
Format: in vivo
Details: individual active compound, rice seedlings, assessed 6 days after inoculation
Protocol: The active compounds, separately or jointly, were prepared as a stock solution with 0.25% by weight of active compound in acetone or DMSO. 1% by weight of the emulsifier Uniperol® EL (wetting agent having emulsifying and dispersing action based on ethoxylated alkylphenols) was added to this solution, and the solution was diluted with water to the desired concentration.
Use example—activity against brown spot of rice caused by Cochliobolus miyabeanus, protective application
Leaves of potted rice seedlings of the cultivar “Tai-Nong 67” were sprayed to runoff point with an aqueous suspension of the concentration of active compound stated below. The next day, the plants were inoculated with an aqueous spore suspension of Cochliobolus miyabeanus. The test plants were then placed in climatized chambers at 22-24° C. and 95-99 % relative atmospheric humidity for six days. The extent of the development of the infection on the leaves was then determined visually.
Evaluation was carried out by determining the percentage of infected plants. These percentages were converted into efficacies.
The efficacy (E) is calculated as follows using Abbot's formula: E=(1−α/β)·100 α corresponds to the fungicidal infection of the treated plants in % and β corresponds to the fungicidal infection of the untreated (control) plants in %
An efficacy of 0 means that the infection level of the treated plants corresponds to that of the untreated control plants; an efficacy of 100 means that the treated plants are not infected.
The expected efficacies of mixtures of active compounds are determined using Colby's formula (R. S. Colby, Weeds, 15, 20-22, 1967) and compared with the observed efficacies.
Colby's formula: E=x+y−x·y/100 • E expected efficacy, expressed in % of the untreated control, when using the mixture of the active compounds A and B at the concentrations a and b • x efficacy, expressed in % of the untreated control, when using the active compound A at the concentration a • y efficacy, expressed in % of the untreated control, when using the active compound B at the concentration b

Row | SMILES | Efficacy in % of the untreated control (1 ppm in the spray liquor) | Efficacy in % of the untreated control (4 ppm in the spray liquor)
1 | CC1CCN(c2c(-c3c(F)cc(F)cc3F)c(Cl)nc3ncnn23)CC1 [I, 5-chloro-7-(4-methylpiperidin-1-yl)-6-(2,4,6-trifluorophenyl)-[1,2,4]triazolo[1,5-a]pyrimidine] | 8% | 
2 | N#Cc1c[nH]cc1-c1cccc(Cl)c1Cl [II (fenpiclonil), 4-(2,3-dichlorophenyl)-1 H-pyrrole-3-carbonitrile] | 0% | 0%
3 | CC1CCN(c2c(-c3c(F)cccc3Cl)c(Cl)nc3ncnn23)CC1 [comparative compound A] | 20% | 
4 | C[C@H](Nc1c(-c2c(F)cc(F)cc2F)c(Cl)nc2ncnn12)C(F)(F)F [comparative compound B] | 20% | 
